The target of one data set is T1, Rat NHE3 (Rattus norvegicus, UniProt P26433).
T1 construct: expressed in transfected cells
Nature of the data set: NHE activity measurement: pHi recovery after acid load in transfected LAP1 cells. As to conditions: pH recovery after acid load, 3 minutes. In kind it is cell-based. The text has this: Most molecular biology techniques follow protocols from the works “Current Protocols in Molecular Biology (eds. Ausubel, F. M., Brent, R., Kingston, R. E., Moore, D. D., Seidman, J. G., Smith, J. A. and Struhl, K.; John Wiley & Sons)” or: “Molecular Cloning: A Laboratory Manual (Sambrock, J., Fritsch, E. F. and Maniatis, T.; Cold Spring Harbor Laboratory Press (1989))”. In our studies, stable transfected cell lines were produced which in each case express one of the following NHE subtypes: NHE1 of man (Sardet et al. Cell 56, 271-280 (1989)), NHE2 of the rabbit (Tse et al. J. Biol. Chem. 268, 11917-11924 (1993)), NHE3 from humans (Brant et al. Am. J. Physiol. 269 (Cell Physiol. 38), C198-C206 (1995)) or NHE3 of the rat (Orlowski et al.; J. Biol. Chem. 267, 9331-9339 (1992)).
After adding suitable linker sequences, the cDNA clones of the respective NHE subtypes obtained by Prof. Pouyssegur were cloned into the expression plasmid pMAMneo (obtainable, for example, via CLONTECH, Heidelberg) such that the Nhel restriction endonuclease recognition sequence of the plasmid is approximately 20-100 base pairs before the start codon of the respective NHE subtype and the entire coding sequence is present in the construct. In the human NHE3 obtained from human kidney mRNA via RT-PCR, the RT-PCR primer were selected such that the resulting cDNA band had terminal restriction sites which matched pMAMneo.
Using the so-called “calcium phosphate method” (described in Chapter 9.1 of “Current Protocols in Molecular Biology”), the NHE-deficient cell line LAP1 (Franchi et al.; Proc. Natl. Acad. Sci. USA 83, 9388-9392 (1986)) was transfected with the plasmids which contain the respective coding sequences of the NHE subtypes. After selection of transfected cells by means of growth in G418-containing medium (only cells which as a result of transfection contain a neogene can survive under these conditions), a selection was made for functional NHE expression. To do this, the “Acid Load” technique described by Sardet was used (Sardet et al.; Cell 56, 271-280 (1989)). Cells which express a functioning NHE subtype can also compensate in the absence of CO2 and HCO3- for the acidification carried out during this test, but untransfected LAP1 cells cannot. After repetition of the “Acid Load” selection several times, the surviving cells were inoculated into microtiter plates such that statistically there should have been one cell per well. Under the microscope, a check was made after approximately 10 days as to how many colonies were growing per well. Cell populations of individual colonies were then investigated with respect to their viability after “Acid Load” using the XTT proliferation kit (Boehringer Mannheim). The best cell lines were used for the further tests, and to avoid a loss of the transfected sequence were cultured under continuous selection pressure in G418-containing medium.
To determine IC50-values for the inhibition of the individual NHE subtypes by specific substances, a test developed by S. Faber (Faber et al.; Cell. Physiol. Biochem. 6, 39-49 (1996)), which is based on the “Acid Load” technique, was slightly modified.
In this test, the recovery of the intracellular pH (pHi) after an acidification was determined, which commences with functioning NHE even under bicarbonate-free conditions. To do this, the pHi was determined using the pH-sensitive fluorescent dye BCECF (Calbiochem, the precursor BCECF-AM is employed). The cells were first loaded with BCECF. The BCECF fluorescence was determined in a “Ratio Fluorescence Spectrometer” (Photon Technology International, South Brunswick, N.J., USA) at excitation wavelengths of 505 and 440 nm and an emission wavelength of 535 nm and converted into the pHi by means of calibration curves. […]

In a further data set the target is NHE3 (Oryctolagus cuniculus, UniProt P26432). The note with it: literature: Donowitz et al. Am. J. Physiol. 276: C136-C144; cited from earlier work.
NHE3, sequence (P26432 30-832): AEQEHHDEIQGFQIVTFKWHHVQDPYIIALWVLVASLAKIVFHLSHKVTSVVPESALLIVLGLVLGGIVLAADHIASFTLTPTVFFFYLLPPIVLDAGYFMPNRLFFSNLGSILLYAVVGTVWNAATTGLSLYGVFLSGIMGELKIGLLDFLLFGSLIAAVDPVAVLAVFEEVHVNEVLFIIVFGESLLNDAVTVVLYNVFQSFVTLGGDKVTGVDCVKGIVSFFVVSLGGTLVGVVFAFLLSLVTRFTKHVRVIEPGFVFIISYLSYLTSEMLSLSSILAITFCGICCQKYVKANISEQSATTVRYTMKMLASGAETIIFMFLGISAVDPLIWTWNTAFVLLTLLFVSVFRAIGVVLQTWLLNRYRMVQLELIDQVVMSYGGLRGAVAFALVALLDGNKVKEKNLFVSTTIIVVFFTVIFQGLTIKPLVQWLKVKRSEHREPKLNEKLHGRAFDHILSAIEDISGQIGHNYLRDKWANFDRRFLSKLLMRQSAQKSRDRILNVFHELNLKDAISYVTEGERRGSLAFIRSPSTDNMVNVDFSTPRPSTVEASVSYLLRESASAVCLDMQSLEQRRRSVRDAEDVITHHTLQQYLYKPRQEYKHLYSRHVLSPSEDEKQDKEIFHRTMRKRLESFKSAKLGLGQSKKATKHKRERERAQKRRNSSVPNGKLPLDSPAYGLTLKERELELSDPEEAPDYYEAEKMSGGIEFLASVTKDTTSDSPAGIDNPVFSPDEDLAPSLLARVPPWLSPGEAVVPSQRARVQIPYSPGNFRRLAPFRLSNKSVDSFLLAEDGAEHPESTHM
The next data set has as its system Caco 2 cells. The data set is described as follows: Caco 2 model (transport across monolayers, absorbed fraction). It is filed as in vitro ADME. The note with it: Caco 2 monolayers, apical to basolateral, assessed from Papp via calibration curve. On the procedure: The Caco 2 cell line was obtained from the American Type Culture Collection (ATCC) and kept in Dulbecco's Modified Eagle Medium (high proportion of glucose), supplemented with non-essential amino acids, L-glutamine, penicillin/streptomycin, and 10% strength fetal calf serum, in an incubator under a 10% CO2 atmosphere at 95% relative atmospheric humidity and at 37° C. The cells were grown in cell culture flasks (175 cm^2). For the transport studies, the Caco 2 cells were inoculated onto polycarbonate cell culture inserts (COSTAR TRANSWELLS®, pore size: 3 μm, surface: 4.71 cm^2) at a cell density of 6.5×10^4 cells/cm^2 and incubated in six-well culture trays, changing the medium after four and eight days and then every other day. 21- to 25-day-old monolayers were used for the experiments.
In each test series, a 21-day-old monolayer was tested for its properties using ^3H-dextrane as permeability marker. The value of the transfer rate (cumulative) after 120 min had to be in the range of 2%.
The growth medium was removed from the apical and the basolateral side and the monolayers were then rinsed with the transport buffer (Hank's balanced salt solution pH 7.8; contains 2.8 g/l of glucose), and the cells were equilibrated at 37° C. under a 10% CO2 atmosphere for 15 min. The HBSS buffer is then removed.
The test compounds were dissolved in a mixture of HBSS buffer and DMSO and added to the apical buffer, giving a 1% strength (v/v) DMSO solution. The test concentration for the first experiment was 1 mM, that for the second experiment was 100 μM. The experiments were carried out at 37° C. and started by adding 1.5 ml of test solution on the donor side (apical). Transport buffer without compound was added to the recipient side (basolateral, 2.5 ml). […] Apical samples were taken at the start and at the end (120 min), so that the recovery rate of the compounds could be determined using these concentrations and the cumulative basolateral concentration. The compounds were analyzed by HPLC.
The apparent permeability coefficient (Papp) is calculated using the following equation: [formula]
in which dc/dt denotes the flow through the monolayer (μg of compound/(ml×s)), V denotes the liquid volume in the collection chamber (ml), A denotes the surface area of the monolayer (cm^2) and c0 denotes the initial concentration (μg of compound/ml) in the donor chamber. The flow through the monolayer was calculated from the cumulative basolateral concentration at the corresponding point of time using the initially linear data curve (linear up to 60 min). All determinations were carried out in three replications, so that the calculated Papp value is the mean of three measurements. […]
Background: Caco-2 monolayers are a common model of the intestinal barrier.

The subject of the next data set is male Wistar rats. The data set is described as follows: Diuresis (salidiuresis) experiment in rats. In kind it is in vivo, rat. The note with it: for Cl / K / Na: urine excretion; for Na/K / Osmolality: urine. As to the method: The salidiuresis experiment was carried out using male Wistar rats having a weight of 155 to 175 g. 16 hours before the start of the experiment, the feed, but not the drinking water, was withdrawn from the animals. The rats were randomized and placed into diuresis cages. […] The control group received, orally, the corresponding volume of drinking water as vehicle. The excretion of urine of each group for the first 5 hours and in the period from 6 to 24 hours was measured. The urine electrolytes sodium and potassium were determined by flame photometry (flame photometer Eppendorf, Hamburg), and chloride was determined potentiometrically (chloride meter Eppendorf). The osmolality of the urine was determined using the freezing-point depression method (osmometer Vogel, Gieβen). Urine and electrolyte excretion and osmolality are stated in ml/kg, mmol/kg, and mosmol/kg of body weight, respectively. The ratio of Na^+/K^+ is an indication of the quality of effect of a diuretic. The results given in the table are arithmetic means with standard deviation.

Where [1] appears, read: 50 mg/kg p.o., mean, 6-24 hours.
[2] abbreviates: 50 mg/kg p.o., mean, sum 1-24 hours.

Where a name gives a salt, the structure may show the parent alone. Where only a bound is given, the exact number is not on record here.

For orientation: IC50 means the concentration needed to halve the response being measured. The low end stands for greater potency in that assay, the high end for weaker potency in that assay.

T1 sequence (P26433 29-831): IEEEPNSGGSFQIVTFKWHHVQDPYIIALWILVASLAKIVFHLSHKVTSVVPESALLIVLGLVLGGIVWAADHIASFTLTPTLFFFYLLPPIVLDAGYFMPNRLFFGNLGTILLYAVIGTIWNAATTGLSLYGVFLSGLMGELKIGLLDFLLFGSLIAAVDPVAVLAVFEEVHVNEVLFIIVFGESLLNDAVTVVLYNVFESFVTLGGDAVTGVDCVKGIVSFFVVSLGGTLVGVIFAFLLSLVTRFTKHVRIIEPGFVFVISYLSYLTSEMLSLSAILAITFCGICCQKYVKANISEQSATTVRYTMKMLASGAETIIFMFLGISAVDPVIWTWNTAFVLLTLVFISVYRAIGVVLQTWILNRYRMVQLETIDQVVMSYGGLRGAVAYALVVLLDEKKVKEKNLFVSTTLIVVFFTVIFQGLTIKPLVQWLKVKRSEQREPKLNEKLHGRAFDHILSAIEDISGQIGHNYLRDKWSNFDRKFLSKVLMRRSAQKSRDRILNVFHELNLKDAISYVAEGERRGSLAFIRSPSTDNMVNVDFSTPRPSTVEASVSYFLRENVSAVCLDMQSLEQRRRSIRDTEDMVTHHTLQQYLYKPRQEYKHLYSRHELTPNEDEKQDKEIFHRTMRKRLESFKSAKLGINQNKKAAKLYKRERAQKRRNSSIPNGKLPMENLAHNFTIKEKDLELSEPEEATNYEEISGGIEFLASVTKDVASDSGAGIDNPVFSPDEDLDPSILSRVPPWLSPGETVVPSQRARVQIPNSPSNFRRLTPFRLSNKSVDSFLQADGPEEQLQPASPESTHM

As to `COc1cccc(CN[C@@H]2CC3CC2[C@@H]2CCC[C@H]32)c1` (stereo partly drawn) [Example 7, (endo/exo)-(3-methoxybenzyl)(octahydro-4,7-methanoinden-5-yl)amine hydrochloride], at Rat NHE3, the IC50 worked out at 31000 nM.
Consider `CC(C)[C@@H](CC[C@@H](C)[C@H]1CC[C@H]2[C@@H]3[C@H](O)C[C@H]4C[C@@H](NCCCNCCCCN)CC[C@]4(C)[C@H]3CC[C@]12C)OS(=O)(=O)O` [squalamine], for which the “delay of NHE3 inhibitory activity” value at NHE3 is listed as “activity seen after one hour”.
Regarding `COc1cccc(CN[C@@H]2C[C@@H]3C[C@H]2[C@@H]2CCC[C@H]32)c1.Cl` (racemic) [Example 5, rac-(exo/endo)-(3-methoxybenzyl)(octahydro-4,7-methanoinden-5-yl)amine hydrochloride], in the data set with Caco 2 cells, the Absorbed fraction worked out at 100%. In the data set with male Wistar rats (50 mg in 10 ml of drinking water/kg of BW p.o., n = 5, mean, 1-5 hours), this compound returned a Urine of 12.39 mL/kg. Moreover, the “salidiuretic effect (assessment)” value in the data set on male Wistar rats (50 mg/kg orally, compared to the control) is reported as “no salidiuretic effect”. Besides, in the data set with male Wistar rats (setting [1]), the Urine came to 22.57 mL/kg, the Cl is recorded as 1.57 mmol/kg, the K is recorded as 3.57 mmol/kg and the Na worked out at 1.29 mmol/kg. In the data set on male Wistar rats (setting [1]), this compound showed a Na/K of 0.37 and an Osmolality of 30.51 mosmol/kg. Also, in the data set with male Wistar rats (setting [2]), the Urine worked out at 34.96 mL/kg, the Cl is given as 2.17 mmol/kg, the K stood at 4.31 mmol/kg and the Na is listed as 1.60 mmol/kg. In the data set with male Wistar rats (setting [2]), this compound had a Na/K of 0.38 and an Osmolality of 38.33 mosmol/kg. For the same compound, in the data set on male Wistar rats (50 mg/kg p.o., mean, 1-5 hours), the Cl is on record as 0.60 mmol/kg, the K was determined as 0.75 mmol/kg, the Na was 0.31 mmol/kg and the Na/K is given as 0.47. The compound further yielded an Osmolality with male Wistar rats (50 mg/kg p.o., mean, 1-5 hours) of 7.82 mosmol/kg. Moreover, it took 810 nM to reach half-maximal inhibition against Rat NHE3 (IC50).
`COc1cccc(CN[C@@H]2CC3CC2[C@H]2CCC[C@@H]32)c1` (stereo partly drawn) [Example 8, (endo/endo)-(3-methoxybenzyl)(octahydro-4,7-methanoinden-5-yl)amine hydrochloride] displayed an IC50 at Rat NHE3 of 70000 nM.
`COc1cccc(CN[C@@H]2C[C@@H]3C[C@H]2[C@H]2CCC[C@@H]32)c1` (relative stereo) [Example 9, (exo/exo)-(3-methoxybenzyl)(octahydro-4,7-methanoinden-5-yl)amine hydrochloride] came in with an IC50 at Rat NHE3 of 5000 nM.
`Cl.Fc1cccc(CN[C@@H]2C[C@@H]3C[C@H]2[C@@H]2CCC[C@H]32)c1` [Example 10, (exo/endo)-(3-fluorobenzyl)(octahydro-4,7-methanoinden-5-yl)amine hydrochloride]: the Absorbed fraction in the data set with Caco 2 cells came to 100%. On Rat NHE3, this compound registered an IC50 of 900 nM.
In the data set with Caco 2 cells, `C/C(=C\c1cccc(/C=C(\C)C(=O)N=C(N)N)c1)C(=O)N=C(N)N.Cl.Cl` [S 2120, reference compound] displayed an Absorbed fraction of less than 1%.
In the case of `COc1cccc(CNC2CC3CC2C2CCCC32)c1` (single isomer, unassigned; (-)) [(−)−6, (−)-(exo/endo)-(3-methoxybenzyl)(octahydro-4,7-methanoinden-5-yl)amine hydrochloride], it took 1000 nM to reach half-maximal inhibition against Rat NHE3 (hydrochloride) (IC50).
`COc1cccc(CNC2CC3CC2C2CCCC32)c1` (single isomer, unassigned; (+)) [(+)−6, (+)-(exo/endo)-(3-methoxybenzyl)(octahydro-4,7-methanoinden-5-yl) amine hydrochloride]: the IC50 on Rat NHE3 (hydrochloride) was found to be 500 nM.
The compound `C/C(=C\c1ccc(C)cc1/C=C(\C)C(=O)N=C(N)N)C(=O)N=C(N)N.Cl.Cl` [S 3226, reference compound] came in with an Absorbed fraction in the data set on Caco 2 cells of less than 5%.

These data come from patent US6825231B2, “Substituted norbornylamino derivatives, processes for their preparation, their use as medicaments or diagnostics, and a medicament comprising them” (Aventis Pharma Deutschland GmbH, priority 1999, dated 2004).
